The assay addresses human fatty acid synthase FASN (Homo sapiens (Human), UniProt P49327). The assay can be described thus: Biochemical activity testing of human fatty acid synthase FASN (NADPH fluorescence intensity enzyme assay). As to conditions: human recombinant full-length fatty acid synthase. An excerpt: Biochemical activity testing of human fatty acid synthase FASN
Fatty acid synthase FASN is a multifunctional enzyme with seven catalytic activities thereby synthesising long chain fatty acids especially palmitoyl-CoA in the presence of co-factor NADPH starting from the substrates acetyl-CoA and malonyl-CoA. The reductive synthesis is realized by the oxidation of NADPH to NADP. Since NADPH has a high fluorescence intensity quantum yield compared to NADP with excitation at 340 nm and emission at 460 nm, the reaction can be monitored via the decrease in fluorescence intensity. The biochemical FASN activity testing was performed as 384 well two-time-point kinetic fluorescence intensity assay format in Greiner low volume medium binding 384-well black microtiter plates in a total assay volume of 8 μl and was used for high throughput screen. In each well 3 μl 40 nM human recombinant full-length fatty acid synthase (produced in-house in SF9 cells) were dispensed in the following assay buffer: 50 mM potassium phosphate buffer pH 7.0, 0.005% (w/v) BSA, 2 mM Glutathione, 0.02% Tween-20. Then 2 μl of 200 μM NADPH in assay buffer were added, followed by the addition of the test compounds in 10 dilution concentrations starting with 30 μM (final concentration) to get a final DMSO content of 1% (v/v). The mixture was incubated for at least 15 min at room temperature. After the pre-incubation the enzymatic reaction was started by the addition of 2 μl substrate solution (80 μM acetyl-CoA, 240 μM malonyl-CoA). A first fluorescence intensity measurement (time point one) was performed with an Envision multimode reader (Perkin Elmer LAS Germany GmbH) at excitation wavelength 340 nm (lamp mode) and emission wavelength 460 nm. The reaction was incubated for 30 minutes at room temperature. After this the fluorescence intensity was measured again in the Envision using the same parameters as described above (second time point measurement). The data were analysed by subtracting the first time point measurement value from the second time point measurement value (after the enzymatic reaction). The differences of the emission signals were determined. These reflect directly the conversion rate of NADPH. The full value used was the inhibitor-free reaction. A pharmacological zero value was used like GSK837149A (Sigma-Aldrich) in a final concentration of 5-10 μM. The inhibitory values (IC50) were determined using either the program Symyx Assay Explorer® or Condosseo® from GeneData.

Molecules are shown by their SMILES. pIC50: −log10 of the molar value.

In general, pIC50 refers to −log10 of the IC50, conventionally taken in molar units.

human fatty acid synthase FASN, sequence (P49327 whole entry): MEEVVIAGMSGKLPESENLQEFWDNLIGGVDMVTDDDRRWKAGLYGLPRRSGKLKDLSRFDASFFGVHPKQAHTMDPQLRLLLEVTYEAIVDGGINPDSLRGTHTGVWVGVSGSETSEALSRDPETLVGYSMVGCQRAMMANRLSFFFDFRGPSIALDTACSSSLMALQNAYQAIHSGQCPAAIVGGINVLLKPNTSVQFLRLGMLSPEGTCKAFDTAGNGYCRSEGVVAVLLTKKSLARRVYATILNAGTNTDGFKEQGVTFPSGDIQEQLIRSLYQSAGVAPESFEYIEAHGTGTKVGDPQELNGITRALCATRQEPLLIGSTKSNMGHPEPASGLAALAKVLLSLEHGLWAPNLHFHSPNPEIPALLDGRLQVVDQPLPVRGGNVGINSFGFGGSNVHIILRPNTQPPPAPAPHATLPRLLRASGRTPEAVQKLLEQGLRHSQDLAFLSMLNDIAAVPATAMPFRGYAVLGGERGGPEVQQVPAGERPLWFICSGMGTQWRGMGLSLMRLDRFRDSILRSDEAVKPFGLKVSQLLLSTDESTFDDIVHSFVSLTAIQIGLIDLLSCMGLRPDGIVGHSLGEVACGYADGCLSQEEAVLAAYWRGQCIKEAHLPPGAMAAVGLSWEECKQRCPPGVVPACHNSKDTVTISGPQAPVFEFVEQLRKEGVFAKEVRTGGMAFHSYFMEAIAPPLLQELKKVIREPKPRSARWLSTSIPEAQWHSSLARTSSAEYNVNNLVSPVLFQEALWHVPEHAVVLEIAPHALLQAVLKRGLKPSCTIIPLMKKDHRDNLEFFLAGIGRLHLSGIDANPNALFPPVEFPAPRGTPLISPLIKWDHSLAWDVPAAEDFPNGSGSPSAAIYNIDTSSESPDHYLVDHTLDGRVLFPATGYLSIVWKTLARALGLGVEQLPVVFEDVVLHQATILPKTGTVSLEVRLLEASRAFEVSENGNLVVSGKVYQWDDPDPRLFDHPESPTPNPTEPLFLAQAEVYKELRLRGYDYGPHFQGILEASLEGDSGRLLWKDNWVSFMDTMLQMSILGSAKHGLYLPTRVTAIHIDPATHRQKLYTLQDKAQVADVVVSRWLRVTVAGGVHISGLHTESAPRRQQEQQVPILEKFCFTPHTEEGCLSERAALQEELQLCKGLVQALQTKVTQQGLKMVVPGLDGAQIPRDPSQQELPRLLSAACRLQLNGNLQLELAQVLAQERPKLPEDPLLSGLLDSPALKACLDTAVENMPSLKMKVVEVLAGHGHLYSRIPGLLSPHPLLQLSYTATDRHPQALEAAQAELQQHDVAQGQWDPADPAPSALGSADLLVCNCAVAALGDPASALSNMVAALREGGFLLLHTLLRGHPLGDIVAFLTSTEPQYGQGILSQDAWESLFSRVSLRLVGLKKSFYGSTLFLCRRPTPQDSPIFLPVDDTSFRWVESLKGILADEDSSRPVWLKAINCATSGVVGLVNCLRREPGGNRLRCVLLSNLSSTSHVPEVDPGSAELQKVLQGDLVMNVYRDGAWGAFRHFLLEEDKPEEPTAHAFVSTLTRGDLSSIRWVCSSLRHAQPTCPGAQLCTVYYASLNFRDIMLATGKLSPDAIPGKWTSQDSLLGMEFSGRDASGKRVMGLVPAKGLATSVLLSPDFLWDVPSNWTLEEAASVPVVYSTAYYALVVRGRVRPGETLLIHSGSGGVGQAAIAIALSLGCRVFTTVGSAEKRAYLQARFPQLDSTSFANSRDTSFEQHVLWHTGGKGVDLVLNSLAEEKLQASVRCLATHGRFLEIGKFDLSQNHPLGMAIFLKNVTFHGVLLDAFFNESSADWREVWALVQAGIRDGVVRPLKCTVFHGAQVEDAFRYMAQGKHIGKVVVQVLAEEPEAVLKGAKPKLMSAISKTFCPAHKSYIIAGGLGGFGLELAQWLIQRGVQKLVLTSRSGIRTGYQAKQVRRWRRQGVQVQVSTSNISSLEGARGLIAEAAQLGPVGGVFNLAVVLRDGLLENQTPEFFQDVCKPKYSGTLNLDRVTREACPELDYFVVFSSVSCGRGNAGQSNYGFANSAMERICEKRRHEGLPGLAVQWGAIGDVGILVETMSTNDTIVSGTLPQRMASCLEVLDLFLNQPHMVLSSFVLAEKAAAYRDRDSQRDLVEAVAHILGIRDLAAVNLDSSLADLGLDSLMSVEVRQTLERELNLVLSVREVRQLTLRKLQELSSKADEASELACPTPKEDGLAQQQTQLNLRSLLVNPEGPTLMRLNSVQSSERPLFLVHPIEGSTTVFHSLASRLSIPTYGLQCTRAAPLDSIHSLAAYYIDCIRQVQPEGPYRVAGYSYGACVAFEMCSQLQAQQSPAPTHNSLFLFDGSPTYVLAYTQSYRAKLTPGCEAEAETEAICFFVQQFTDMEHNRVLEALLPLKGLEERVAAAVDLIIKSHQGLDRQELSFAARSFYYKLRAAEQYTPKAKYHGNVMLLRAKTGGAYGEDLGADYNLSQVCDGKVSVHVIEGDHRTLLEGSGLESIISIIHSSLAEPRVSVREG

Consider `CCC(=O)N[C@H]1CC[C@@H](N(C)C(=O)c2ccc(-c3ccc(C(N)=O)cc3)cc2)C1` [Compound A57, biphenyl-4,4′-dicarboxylic acid 4′-amide 4-[methyl-((1R,3S)-3-propionylamino-cyclopentyl)-amide]], for which the pIC50 is greater than 6.52.

Consider `CCC(=O)N[C@H]1CC[C@@H](N(C)C(=O)c2ccc(-c3ccc(C(C)(C)C)cc3)cc2)C1` [Compound A55, tert-butyl-biphenyl-4-carboxylic acid methyl-((1R,3S)-3-propionylamino-cyclopentyl)-amide], for which the negative logarithm of the IC50 (pIC50) was 4.30 to 5.52.

As for `CCC(=O)N[C@H]1CC[C@@H](N(C)C(=O)c2ccc(-c3ccc4c(c3)CC(=O)N4)cc2)C1` [Compound A94, N-methyl-4-(2-oxo-2,3-dihydro-1H-indol-5-yl)-N-((1R,3S)-3-propionylamino-cyclopentyl)-benzamide], the pIC50 was greater than 6.52.

Consider `CN(C(=O)c1ncc(-c2nc3ccc(Cl)cc3o2)cn1)[C@@H]1CC[C@H](NC(=O)[C@@H]2CCCO2)C1` [Compound A149, 5-(6-chloro-benzoxazol-2-yl)-pyrimidine-2-carboxylic acid methyl-{(1R,3S)-3-[((S)-tetrahydro-furan-2-carbonyl)-amino]-cyclopentyl}-amide], for which the negative-log IC50 (pIC50) was 5.52 to 6.52.

For `COC(=O)[C@H](CC(=O)N[C@H]1CC[C@@H](N(C)C(=O)c2ccc(-c3nc4ccccc4o3)cc2)C1)NC(C)=O` [Compound A39, (S)-2-acetylamino-N-{(1S,3R)-3-[(4-benzoxazol-2-yl-benzoyl)-methyl-amino]-cyclopentyl}-succinamic acid methyl ester], the pIC50 is 5.52 to 6.52.

Take `CCC(=O)N[C@H]1CC[C@@H](N(C)C(=O)c2ccc(-c3nc4ccc(Cl)cc4o3)nn2)C1` [Compound A155, 6-(6-chloro-benzoxazol-2-yl)-pyridazine-3-carboxylic acid methyl-((1R,3S)-3-propionylamino-cyclopentyl)-amide]: the pIC50 is 4.30 to 5.52.

Regarding `CCC(=O)N[C@H]1CC[C@@H](N(C)C(=O)c2cnc(-c3ccc4[nH]ccc4c3F)cc2C)C1` [Compound A146, 6-(4-fluoro-1H-indol-5-yl)-4,N-dimethyl-N-((1R,3S)-3-propionylamino-cyclopentyl)-nicotinamide], the negative-log IC50 (pIC50) was greater than 6.52.

In the case of `CCC(=O)N[C@H]1CC[C@@H](N(C)C(=O)c2ccc(-c3ccc(OC(F)(F)F)cc3)cc2)C1` [Compound A62, 4′-trifluoromethoxy-biphenyl-4-carboxylic acid methyl-((1R,3S)-3-propionylamino-cyclopentyl)-amide], the pIC50 was 5.52 to 6.52.

`CCC(=O)N[C@H]1CC[C@@H](N(C)C(=O)c2ccc(-c3ccc4[nH]ccc4c3)nn2)C1` [Compound A113, 6-(1H-indol-5-yl)-pyridazine-3-carboxylic acid methyl-((1R,3S)-3-propionylamino-cyclopentyl)-amide]: the pIC50 was greater than 6.52.

Consider `CCC(=O)N[C@H]1CC[C@@H](N(C)C(=O)c2ccc(-c3ccc(-c4ccn[nH]4)cc3)cc2)C1` [Compound A81, 4′-(2H-pyrazol-3-yl)-biphenyl-4-carboxylic acid methyl-((1R,3S)-3-propionylamino-cyclopentyl)-amide], for which the pIC50 is greater than 6.52.

Regarding `CN(C(=O)c1ccc(-c2nc3cc(Cl)ccc3o2)cc1)[C@@H]1CC[C@H](NC(=O)[C@@H]2CCCO2)C1` [Compound A174], the pIC50 was greater than 6.52.

For the molecule `CCC(=O)N[C@H]1CC[C@@H](N(C)C(=O)c2ccc(-c3ccc4[nH]ccc4c3F)nc2)C1` [Compound A135, 6-(4-fluoro-1H-indol-5-yl)-N-methyl-N-((1R,3S)-3-propionylamino-cyclopentyl)-nicotinamide], the pIC50 was greater than 6.52.

Regarding `CN(C(=O)c1ccc(-c2nc3ccccc3o2)cc1)[C@@H]1CC[C@@H](NC(=O)Cc2ccccc2)C1` [Compound A167, 4-benzoxazol-2-yl-N-methyl-N-((1R,3R)-3-phenylacetylamino-cyclopentyl)-benzamide], the pIC50 was 4.30 to 5.52.

Consider `CCC(C)CC(=O)N[C@H]1CC[C@@H](N(C)C(=O)c2ccc(-c3nc4ccccc4o3)cc2)C1` (stereo partly drawn) [Compound A26, 4-benzoxazol-2-yl-N-methyl-N-[(1R,3S)-3-(3-methyl-pentanoylamino)-cyclopentyl]-benzamide], for which the pIC50 was greater than 6.52.

With `CCC(=O)N[C@H]1CC[C@@H](N(C)C(=O)c2ccc(-c3ccc(C(=O)OC)cc3F)cc2)C1` [Compound A97, 2-fluoro-4′-[methyl-((1R,3S)-3-propionylamino-cyclopentyl)-carbamoyl]-biphenyl-4-carboxylic acid methyl ester], the pIC50 was greater than 6.52.

Turning to `CCC(=O)N[C@H]1CC[C@@H](N(C)C(=O)c2ccc(-c3ccc(C(=O)O)cc3)cc2)C1` [Compound A51, 4′-[methyl-((1R,3S)-3-propionylamino-cyclopentyl)-carbamoyl]-biphenyl-4-carboxylic acid], the pIC50 was greater than 6.52.

In the case of `CCC(=O)N[C@H]1CC[C@@H](N(C)C(=O)c2ccc(-c3ccc4c(ccn4C)c3)cc2)C1` [Compound A80, N-methyl-4-(1-methyl-1H-indol-5-yl)-N-((1R,3S)-3-propionylamino-cyclopentyl)-benzamide], the pIC50 is greater than 6.52.

As to `CCC(=O)N[C@H]1CC[C@@H](N(C)C(=O)c2ncc(-c3ccc4c(ccn4C)c3)cn2)C1` [Compound A133, 5-(1-methyl-1H-indol-5-yl)-pyrimidine-2-carboxylic acid methyl-((1R,3S)-3-propionylamino-cyclopentyl)-amide], the pIC50 was greater than 6.52.

Turning to `CCC(=O)N[C@H]1CC[C@@H](N(C)C(=O)c2ccc(-c3ccc4[nH]ccc4c3)c(F)c2)C1` [Compound A112, 3-fluoro-4-(1H-indol-5-yl)-N-methyl-N-((1R,3S)-3-propionylamino-cyclopentyl)-benzamide], the pIC50 was greater than 6.52.

Turning to `CC[C@@H](C)CC(=O)N[C@H]1CC[C@@H](N(C)C(=O)c2ccc(-c3nc4ccccc4o3)cc2)C1` [Compound A31, 4-benzoxazol-2-yl-N-methyl-N-[(1R,3S)-3-((R)-3-methyl-pentanoylamino)-cyclopentyl]-benzamide], the pIC50 is greater than 6.52.

`CC(=O)NCCC(=O)N[C@H]1CC[C@@H](N(C)C(=O)c2ccc(-c3nc4ccccc4o3)cc2)C1` [Compound A38, N-[(1R,3S)-3-(3-acetylamino-propionylamino)-cyclopentyl]-4-benzoxazol-2-yl-N-methyl-benzamide]: the pIC50 is 5.52 to 6.52.

With `CN(C(=O)c1ccc(-c2nc3cccc(F)c3o2)cc1)[C@@H]1CC[C@H](NC(=O)C2CC2)C1` [Compound A50, N-[(1R,3S)-3-(cyclopropanecarbonyl-amino)-cyclopentyl]-4-(7-fluoro-benzoxazol-2-yl)-N-methyl-benzamide], the pIC50 is 5.52 to 6.52.

In the case of `CCC(=O)N[C@H]1CC[C@@H](N(C)C(=O)c2ccc(-c3ccc4[nH]c(=O)[nH]c4c3)cc2)C1` [Compound A93, N-methyl-4-(2-oxo-2,3-dihydro-1H-benzimidazol-5-yl)-N-((1R,3S)-3-propionylamino-cyclopentyl)-benzamide], the pIC50 is greater than 6.52.

For the molecule `CCC(=O)N[C@H]1CC[C@@H](N(C)C(=O)c2ccc(-c3cc(F)c4[nH]ccc4c3)nc2)C1` [Compound A134, 6-(7-fluoro-1H-indol-5-yl)-N-methyl-N-((1R,3S)-3-propionylamino-cyclopentyl)-nicotinamide], the pIC50 is 5.52 to 6.52.

Regarding `CN(C(=O)c1ccc(-c2nc3ccccc3o2)cc1)[C@@H]1CC[C@H](NC(=O)C2CC2)C1` [Compound A2, 4-benzoxazol-2-yl-N-[(1R,3S)-3-(cyclopropanecarbonyl-amino)-cyclopentyl]-N-methyl-benzamide], the pIC50 is greater than 6.52.

With `CCC(=O)N[C@H]1CC[C@@H](N(C)C(=O)c2ccc(-c3ccc(Cl)cc3F)cc2)C1` [Compound A92, 4′-chloro-2′-fluoro-biphenyl-4-carboxylic acid methyl-((1R,3S)-3-propionylamino-cyclopentyl)-amide], the pIC50 is greater than 6.52.

Turning to `CCC(=O)N[C@H]1CC[C@@H](N(C)C(=O)c2ccc(-c3ccccc3)cc2)C1` [Compound A8, biphenyl-4-carboxylic acid methyl-((1R,3S)-3-propionylamino-cyclopentyl)-amide], the pIC50 was greater than 6.52.

For `CCC(=O)N[C@H]1CC[C@@H](N(C)C(=O)c2ccc(-c3nc4ccc(Cl)cc4o3)nc2)C1` [Compound A153, 6-(6-chloro-benzoxazol-2-yl)-N-methyl-N-((1R,3S)-3-propionylamino-cyclopentyl)-nicotinamide], the pIC50 is greater than 6.52.

In the case of `CCC(=O)N[C@H]1CC[C@@H](N(C)C(=O)c2ccc(-c3nc4ccccc4o3)cn2)C1` [Compound A16, 5-benzoxazol-2-yl-pyridine-2-carboxylic acid methyl-((1R,3S)-3-propionylamino-cyclopentyl)-amide], the pIC50 was greater than 6.52.

Source of the values: patent US9670142B2, “1,3-diaminocyclopentane carboxamide derivatives” (Merck Patent GmbH, priority 2013, dated 2017).
